Experimental data from patent publication US12157713B2, “Conjugated oligoelectrolytes as antimicrobial agents” (Nanyang Technological University, priority 2018, dated 2024).
Read-outs that look alike come from different tables or passages of the source.

Columns and labels:
[1] = test system: Klebsiella pneumoniae MDR ATCC 700603; test: Single-dose growth inhibition, Kp; assay type: cell-based
Description: Inhibition of bacterial growth was determined by measuring the absorbance at 600 nm (OD600), using a Tecan M1000 Pro monochromator plate reader. Growth inhibition was calculated for each well, relative to the reference growths determined from a negative control (media only) and positive control (bacteria without inhibitors) incubated in the same plate. A single dose of 32 μg/mL of COE (final concentration) was used for each test.
Percentage growth inhibition of an individual sample was calculated based on growth in a reference well determined from negative controls (media only) and positive controls (bacterial/fungal media without inhibitors). Negative inhibition values indicate that the growth rate (or OD600) is higher compared to the reference growth (bacteria/fungi only, set to 0% inhibition). The growth rates for all bacteria and fungi may vary at −/+10%, which were within the reported normal distribution of bacterial/fungal growth. Any significant variations (or outliers/hits) were identified by the modified Z-Score, and the active compounds were selected by a combination of inhibition values and Z-Score.
A M(i) value of >|2.5| (absolute) would classify the sample as outliers or hits. Active samples were denoted as compounds with inhibition values equal to or above 80% and absolute Z-Score above |2.5| for either replicate (n=2 on different plates). Partial active samples were denoted as compounds with inhibition values from 50% to <80%, or absolute Z-Score below |2.5|.

[2] = test system: Enterococcus faecalis OG1RF; test: MIC by broth microdilution against E. faecalis OG1RF; assay type: cell-based; settings: BHI
Description: (§1) The respective minimum inhibition concentration (MIC) of each COE molecule was determined using a broth microdilution method. Briefly, COEs were diluted via a 2-fold dilution series in 100 μL of either Muller Hinton Broth (MHB) for E. coli and S. aureus or Brain Heart Infusion Broth (BHI) for E. faecalis in a 96-well plate to achieve the desired final concentration. Subsequently, each well was inoculated with 100 μL of 1×10^6 colony forming units (CFU) mL^−1 of the respective microorganism in MHB for E. coli or BHI for E. faecalis to achieve an inoculum density of 5×10^5 CFU mL^−1. The plates were then incubated at 37° C. with shaking (200 rpm) for 18 hrs. […] The results were obtained in triplicate.
The MIC values of COE-D4, COE-D6 and COE-D8 against the reference strain E. coli K12, pathogenic E. coli UT189, and the Gram positive pathogen Enterococcus faecalis OG1RF were determined using a broth microdilution method as described in the general method above. The MICs for E. coli K12 were determined to be 128, 16, and 4 μg mL^−1 for COE-D4, COE-D6, and COE-D8, respectively (FIG. 5a). […] This is not surprising as these two organisms differ in the capsular polysaccharides that they expressed, which are known to hinder the uptake of antimicrobials and mitigate their potency (M. A. Campos, et al., Infect. Immun. 2004, 72, 7107-7114). […]

[3] = test system: MRSA BAA-40; test: Time-kill assay; assay type: cell-based, Staphylococcus aureus; settings: 32 μg/mL; for Reduction of viability of MRSA BAA-40 compared with vancomycin: FIG. 11a
Description: A stationary-phase culture of MRSA BAA-40 was diluted to 2×10^8 CFU/mL in fresh MHB. 500 μL of this suspension was then mixed with another 500 μL of MHB containing twice the desired final concentrations of COEs and vancomycin (32 μg/mL). The tube was incubated at 37° C. with 200 rpm shaking. Aliquots were removed at various time points and were serially diluted in PBS, and plated on MHB plates to enumerate CFU/mL.

[4] = test system: human erythrocytes; test: Haemolysis assay; assay type: cell-based
Description: 1 mL of mammalian blood, collected from a healthy donor, was mixed with 9 mL of PBS and centrifuged at 1,000 rpm for 5 min. Red blood cell pellet was collected and subsequently washed with PBS three times and diluted to a final concentration of 5% v/v. The various COEs were dissolved in PBS and two folds serial diluted in a 96-well microplate. 50 μL of red blood cell stock was mixed with 50 μL of COE solution in each well and incubated for 1 hr at 37° C. under shaking. The microplate was centrifuged at 1,000 rpm for 10 min. 80 μL aliquots of the supernatant were then transferred to a new 96-well microplate and diluted with another 80 μL of PBS. Haemolytic activity was calculated by measuring absorbance at 540 nm using a 96-well plate spectrophotometer. Triton X-100 (0.1% in PBS), which is able to lyse red blood cells, completely was used as positive control, while PBS was used as negative control. The haemolysis percentage was calculated using the following formula:
[formula] where Op is the absorbance of the COE-treated sample, Ob is the absorbance of negative control and Ot is the absorbance of positive control. Results and Discussions
The selectivity of COEs towards bacteria or mammalian cells can be quantified using the ratio between the concentrations leading to 50% lysis of human erythrocytes (HC50) and the MIC value.

[5] = test system: MRSA BAA-40; test: Resistance evolution experiment (serial passage); assay type: cell-based, Staphylococcus aureus; settings: for MIC on MRSA BAA-40 during serial passage: from the 5th day onwards, 17 days; for Tendency to cause resistance in the bacteria: serial passage for 17 days
Description: To evaluate the propensity of COE to induce resistance, a serial passage of MRSA BAA-40 in MHB medium containing 100-fold diluted stationary-phase culture with increasing concentrations of COE was performed.

[6] = test system: Methicillin-resistant Staphylococcus aureus (MRSA BAA-40); test: MIC against MRSA BAA-40; assay type: cell-based; settings: for MIC in comparison with vancomycin: all three strains: E. coli K12, S. aureus 25923, MRSA BAA-40 (FIG. 5b)
Description: as §1
The antimicrobial effects of COE-D62N and COE-D82N were also tested on the Gram-positive Staphylococcus aureus 25923 and Methicillin-resistant Staphylococcus aureus(MRSA BAA-40), in comparison with vancomycin (FIG. 5b).

[7] = Intrinsic hepatic clearance in mice; assay type: in vitro ADME
[8] = test system: Staphylococcus aureus on reconstituted human epidermis (RHE); test: Reconstituted human epidermis skin model inoculated with S. aureus; assay type: cell-based; settings: 10× the MIC of S. aureus
Description: Reconstituted human epidermis (RHE) was cultured in multiwell plates on polymer membrane inserts (0.5 cm^2 surface area) using immortalized human keratinocytes (250,000 NTERTS) in CnT prime media (from CellnTec) for 48 hours after which they were transferred to CnT 3D prime media for 24 hours before air lifting. The media was changed every 48 hours thereafter and RHE was grown for at least 7 days. After the stratified layers of the RHE were formed, a standardised inoculum of Staphylococcus aureus was added to RHEs (with the exception of the negative control), followed by the addition of 10× the MIC of S. aureaus of antimicrobial COEs.

[9] = Aqueous solubility (further tests); assay type: physicochemical; settings: aqueous medium (not further specified)
[10] = ATCC700603, read-out: Growth inhibition Kp
[11] = ATCC700603, 32 μg/mL single dose, n=2, read-out: Growth inhibition Kp

Compound `C[N+](C)(C)CCCCOc1ccc(/C=C/c2ccc(OCCCC[N+](C)(C)C)cc2)cc1` [COE-D4] has an inhibition at 32 µg/mL [1, 10] of less than 50%.

Compound `C[N+](C)(C)CCCCCCOc1ccc(/C=C/c2ccc(OCCCCCC[N+](C)(C)C)cc2)cc1` [COE-D6] has an inhibition at 32 µg/mL [1, 10] of less than 50%.

`C[N+](C)(C)CCCCCCCCOc1ccc(/C=C/c2ccc(OCCCCCCCC[N+](C)(C)C)cc2)cc1` [COE-D8] showed an inhibition at 32 µg/mL [1, 10] of 50 to 80% and an MIC [2] of 4 µg/mL.

In the case of `CN(C)CC[N+](C)(C)CCCCCCOc1ccc(/C=C/c2ccc(OCCCCCC[N+](C)(C)CCN(C)C)cc2)cc1` [COE-D62N], the “Reduction of viability of MRSA BAA-40 compared with vancomycin” value [3] is reported as “much faster than that of vancomycin”, the Toxicity towards erythrocytes [4] is reported as “non-toxic” and the “MIC on MRSA BAA-40 during serial passage” value [5] is reported as “remained relatively constant”. For the same compound, the “Tendency to cause resistance in the bacteria” value [5] was “low tendency to cause resistance”, the MIC ([6]; Staphylococcus aureus) was 1 µg/mL and the “MIC in comparison with vancomycin” value [6] was “lower MIC than vancomycin”. The “intrinsic hepatic clearance in mice” value [7] was “good”, the “Skin structure of infected RHE model after treatment” value [8] was “intact skin structure” and the solubility [9] was greater than 200 µM. It also gave an inhibition at 32 µg/mL [1, 11] of less than 50%.

For `CN(C)CC[N+](C)(C)CCCCCCCCOc1ccc(/C=C/c2ccc(OCCCCCCCC[N+](C)(C)CCN(C)C)cc2)cc1` [COE-D82N], the “Time to reduce viability of MRSA close to the minimum” value [3] was no more than 2 h, the “Reduction of viability of MRSA BAA-40 compared with vancomycin” value [3] was “much faster than that of vancomycin” and the “MIC on MRSA BAA-40 during serial passage” value [5] was “remained relatively constant”. The “Tendency to cause resistance in the bacteria” value [5] was “low tendency to cause resistance”, the “MIC in comparison with vancomycin” value [6] was “lower MIC than vancomycin” and the “Skin structure of infected RHE model after treatment” value [8] was “intact skin structure”. The inhibition at 32 µg/mL [1, 11] was greater than 80%.
